The values that follow come from patent publication US20070134319A1, “Pharmaceutical formulations of bisphosphonates” (priority 2003, published 2007).

SMILES strings stand for the structures. Some results are limits rather than exact numbers.

Excerpt: The solubility of zoledronic acid in [sequence] 44/14 and [sequence]

As for `O=P(O)(O)C(O)(Cn1ccnc1)P(=O)(O)O` [zoledronic acid, 1-hydroxy-2-(imidazol-1-yl)ethane-1,1-diphosphonic acid], under “assessed visually”, the “Zoledronic acid solubility in all the excipients (liquid lipidic media)” value was < 0.2 mg/g of excipient. In addition, the “Solubility of zoledronic acid in VITAMIN E-TPGS” value (at 40° C.) is recorded as “less than 0.22 mg/g”. Further, the “Solubility of zoledronic acid in GELUCIRE 50/13” value (at 60° C.) is recorded as “less than 1 mg/g”. The “Solubility in pH 4.5 acetate buffer” value (pH 4.5) is on record as “readily soluble”. Under “pH 4.5 acetate buffer solution, tap water (final pH 3.8) or citric acid (final pH~2.2) flush”, the “Precipitation upon addition of flush” value was “does not precipitate out”.
